{"source": "patent US20190275040A1", "about": "“COMPOUNDS AND METHODS FOR TREATING OR PREVENTING ALZHEIMER'S DISEASE” (YALE UNIVERSITY, priority 2016, published 2019)", "key": {"[1]": {"tested_on": "Aβo-induced suppression of LTP in hippocampal slices", "experiment": "Hippocampal CA3-CA1 LTP in acute brain slices with or without Aβo", "format": "cell-based, mouse", "details": "WT slices", "experimental": "FIG. 3A depicts WT slices that were treated with either vehicle or Aβo 30 min prior to theta burst stimulation (TBS). The slope of the field excitatory postsynaptic potential (fEPSP) is plotted as a function of time. Data are graphed as mean±SEM (n=6-12). Inset, representative traces immediately before TBS and 60 min post-TBS (red) are superimposed. FIG. 3B depicts WT and Pyk2−/− brain slices in the absence of Aβo, plotted as in FIG. 3A. FIG. 3C depicts average fEPSPs at 50-60 min post-TBS plotted for the indicated conditions as mean±SEM (n=3-20). Where indicated, 500 nM PF719 kinase inhibitor was pre-incubated with WT slices for 60 min prior to addition of Aβo or vehicle for 30 min, and then TBS. One-way ANOVA, **, p<0.01.\nThe role of Pyk2 in Aβo-induced disruption of synaptic plasticity using hippocampal CA3 to CA1 LTP has also been evaluated, comparing WT and Pyk2−/− slices. […]\n400-μm coronal slices were prepared as described elsewhere herein and submerged in a recording chamber (BSC-PC, Warner Instruments) containing aCSF with 2.4 mM CaCl2 that was continuously oxygenated (95% O2, 5% CO2). […] Extracellular field excitatory post-synaptic potentials (fEPSPs) were recorded using a glass microelectrode (2-6 MS2) (4878, World Precision Instruments) filled with aCSF, and placed in the Stratum radiatum of CA1 neurons. […]"}, "Fyn": {"target": "Fyn (Homo sapiens, UniProt P06241)", "sequence (P06241 whole entry, species assumed)": "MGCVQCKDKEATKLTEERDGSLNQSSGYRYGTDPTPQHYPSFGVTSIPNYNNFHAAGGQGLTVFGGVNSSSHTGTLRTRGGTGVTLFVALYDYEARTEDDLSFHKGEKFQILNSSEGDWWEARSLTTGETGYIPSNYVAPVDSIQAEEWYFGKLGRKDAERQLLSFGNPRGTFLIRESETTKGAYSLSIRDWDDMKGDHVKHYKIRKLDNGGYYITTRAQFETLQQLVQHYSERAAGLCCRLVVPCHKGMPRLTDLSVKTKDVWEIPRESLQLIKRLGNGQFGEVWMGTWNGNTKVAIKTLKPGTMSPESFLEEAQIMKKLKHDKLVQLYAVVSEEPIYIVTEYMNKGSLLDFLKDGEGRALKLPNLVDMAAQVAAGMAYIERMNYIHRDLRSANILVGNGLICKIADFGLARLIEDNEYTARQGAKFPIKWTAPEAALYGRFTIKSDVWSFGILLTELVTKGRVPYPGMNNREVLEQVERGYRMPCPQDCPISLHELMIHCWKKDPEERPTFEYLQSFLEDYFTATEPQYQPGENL", "details": "cited from earlier work"}}, "data": [{"smiles": "CCOc1ccc2nc(SCc3nc(N)nc(N4CCOCC4)n3)sc2c1", "note": "[PF-719, 4-(((6-ethoxybenzo[d]thiazol-2-yl)thio)methyl)-6-morpholino-1,3,5-triazin-2-amine]", "values": [{"measurement": "Aβo-induced suppression of LTP", "setting": "[1]; 500 nM, Aβo 30 min before TBS", "value": "protects these slices from Aβo-induced suppression"}, {"measurement": "LTP without Aβo", "setting": "[1]; nM concentrations (500 nM, 60 min pre-incubation)", "value": "does not block LTP"}, {"measurement": "Ki", "setting": "Fyn", "value": "> 1000", "unit": "nM"}]}]}
